Measured values taken from ChEMBL document CHEMBL1201862, “PubChem BioAssay data set” (2004).
Activity calls are given as the source filed them. For most assays here, no stated cut-off is given here; in the data, actives have a measured EC50 and inactives only a lower limit.

Legend:
[1] = tested on: Streptococcus sp. 'group A'; assay: growth inhibition of control SK(-) GAS strain, dose response, counter-screen for streptokinase expression inhibitor project, luminescence, kanamycin, BacTiterGlo, confirmation (AID 1900); type: functional, organism-based
[2] = target: T1, Streptokinase A (Streptococcus pyogenes serotype M1, UniProt P10520); assay: S. pyogenes streptokinase expression inhibitors, potency, dose response, plasminogen activation absorbance, OD405 (AID 1914); type: functional, Streptococcus pyogenes M1 GAS;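 further: secreted streptokinase activity via plasminogen activation per viability signal from cell pellet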
T1 sequence (P10520 whole entry): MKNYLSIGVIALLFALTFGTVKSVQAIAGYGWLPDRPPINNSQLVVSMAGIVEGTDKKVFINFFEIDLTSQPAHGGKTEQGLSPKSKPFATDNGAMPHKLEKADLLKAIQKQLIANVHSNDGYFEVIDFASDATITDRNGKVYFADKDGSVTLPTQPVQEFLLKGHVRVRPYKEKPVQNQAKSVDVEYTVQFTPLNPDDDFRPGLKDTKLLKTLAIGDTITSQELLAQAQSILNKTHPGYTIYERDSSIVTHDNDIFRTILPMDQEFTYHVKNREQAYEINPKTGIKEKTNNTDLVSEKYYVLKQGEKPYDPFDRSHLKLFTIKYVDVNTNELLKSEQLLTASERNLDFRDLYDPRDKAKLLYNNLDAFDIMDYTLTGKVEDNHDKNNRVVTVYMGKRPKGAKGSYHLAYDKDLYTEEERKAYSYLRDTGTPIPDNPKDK

[3] = tested on: Streptococcus; assay: Group A Streptococcus viability loss, dose response, counter-screen for streptokinase expression inhibitor project, luminescence, BacTiterGlo (AID 1915); type: functional, organism-based;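 further: potency for reduction of bacterial viability or growth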
[4] = Luminescence Cell-Based Dose Retest to Confirm Inhibitors of Cancer Stem Cells. [Related pubchem assays (depositor defined):AID2717, AID2721]; type: functional; settings: Homo sapiens
[5] = target: T2, Replicative DNA helicase DnaB (Mycobacterium tuberculosis, UniProt P9WMR3); assay: DnaB intein splicing inhibitors, dose response, biochemical, cell-free fluorescence (AID 449749); type: functional
T2 sequence (P9WMR3 whole entry): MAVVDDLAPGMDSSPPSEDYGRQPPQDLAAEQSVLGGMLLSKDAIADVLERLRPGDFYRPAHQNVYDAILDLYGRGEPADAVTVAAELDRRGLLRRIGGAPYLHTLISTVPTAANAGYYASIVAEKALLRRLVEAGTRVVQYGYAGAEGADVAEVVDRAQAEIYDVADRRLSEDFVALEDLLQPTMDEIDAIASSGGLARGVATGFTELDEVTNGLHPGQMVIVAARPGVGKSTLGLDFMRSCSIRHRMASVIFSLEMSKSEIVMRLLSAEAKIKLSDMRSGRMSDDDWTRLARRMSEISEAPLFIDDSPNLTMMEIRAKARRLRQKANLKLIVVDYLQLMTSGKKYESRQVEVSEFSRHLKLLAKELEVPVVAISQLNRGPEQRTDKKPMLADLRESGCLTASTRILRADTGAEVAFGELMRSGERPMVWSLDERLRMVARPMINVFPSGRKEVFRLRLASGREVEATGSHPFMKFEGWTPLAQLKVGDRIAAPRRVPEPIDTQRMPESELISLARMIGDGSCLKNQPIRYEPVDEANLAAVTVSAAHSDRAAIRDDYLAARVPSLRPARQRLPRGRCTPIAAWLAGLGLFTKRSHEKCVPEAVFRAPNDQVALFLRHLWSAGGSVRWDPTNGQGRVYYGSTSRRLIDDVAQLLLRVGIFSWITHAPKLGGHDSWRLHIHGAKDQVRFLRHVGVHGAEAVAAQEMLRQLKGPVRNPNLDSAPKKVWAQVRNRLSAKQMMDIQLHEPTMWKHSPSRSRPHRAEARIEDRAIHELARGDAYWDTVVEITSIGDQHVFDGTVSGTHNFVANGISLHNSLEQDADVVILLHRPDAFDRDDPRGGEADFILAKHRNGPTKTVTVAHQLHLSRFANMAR

[6] = target: T3, Protein RecA (Mycobacterium tuberculosis, UniProt P9WHJ3); assay: Fluorescence Cell-Free Homogeneous Dose Retest to Identify Inhibitors of RecA-Intein Splicing Activity. [Related pubchem assays (depositor defined):AID2097, AID2223, AID489010, AID492950]; type: functional
T3 sequence (P9WHJ3 whole entry): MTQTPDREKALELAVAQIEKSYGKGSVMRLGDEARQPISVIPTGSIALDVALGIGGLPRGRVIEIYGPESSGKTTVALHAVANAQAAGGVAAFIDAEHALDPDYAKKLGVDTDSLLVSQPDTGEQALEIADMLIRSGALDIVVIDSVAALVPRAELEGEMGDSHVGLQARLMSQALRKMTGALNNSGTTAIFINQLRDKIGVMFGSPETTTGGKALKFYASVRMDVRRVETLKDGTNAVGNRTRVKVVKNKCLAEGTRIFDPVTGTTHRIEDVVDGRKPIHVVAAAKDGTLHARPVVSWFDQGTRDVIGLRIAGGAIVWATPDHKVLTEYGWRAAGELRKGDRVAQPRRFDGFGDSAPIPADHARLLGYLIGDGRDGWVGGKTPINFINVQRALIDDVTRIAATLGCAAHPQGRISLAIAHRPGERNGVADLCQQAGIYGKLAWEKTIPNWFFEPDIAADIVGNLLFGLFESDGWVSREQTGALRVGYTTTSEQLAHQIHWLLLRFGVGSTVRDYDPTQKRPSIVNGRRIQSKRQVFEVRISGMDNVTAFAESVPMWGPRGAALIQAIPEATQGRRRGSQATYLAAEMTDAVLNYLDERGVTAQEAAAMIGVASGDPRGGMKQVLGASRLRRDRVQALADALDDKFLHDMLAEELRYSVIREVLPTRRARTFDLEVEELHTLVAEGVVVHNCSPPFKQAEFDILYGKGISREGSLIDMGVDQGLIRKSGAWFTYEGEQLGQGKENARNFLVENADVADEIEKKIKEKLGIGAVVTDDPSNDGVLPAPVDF

[7] = target: T4, Carboxy-terminal domain RNA polymerase II polypeptide A small phosphatase 1 (Homo sapiens, UniProt Q9GZU7); assay: inhibitors of CTDSP1, concentration-response testing, biochemical assay, absorbance-based, actives from ultra-high-throughput screening (AID 540297); type: functional
T4 sequence (Q9GZU7 whole entry): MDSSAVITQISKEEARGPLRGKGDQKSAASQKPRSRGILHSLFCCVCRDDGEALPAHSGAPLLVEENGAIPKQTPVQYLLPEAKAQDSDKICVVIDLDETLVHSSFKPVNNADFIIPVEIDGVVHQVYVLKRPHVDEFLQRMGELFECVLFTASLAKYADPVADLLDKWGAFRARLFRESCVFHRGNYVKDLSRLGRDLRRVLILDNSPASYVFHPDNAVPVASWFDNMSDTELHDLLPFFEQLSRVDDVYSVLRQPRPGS

[8] = Shn3 3'UTR reporter inhibitors, dose response, cell-based, Clone20 osteoblasts, firefly luciferase, cherry-picked (AID 624132); type: functional;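 further: firefly luciferase luminescence from reporter carrying the Shn3 3'UTR in osteoblasts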
[9] = inhibitors of firefly luciferase expression or activity, dose response, H4 neuroglioma cells, luminescence (AID 1990); type: functional, cell-based
[10] = Luminescence Cell-Based Dose Response HTS to Identify Inhibitors of 5'UTR Stem-Loop Driven Prion Protein mRNA Translation in H4 Neuroglioblastoma Cells. [Related pubchem assays: 1827 (Project Summary), 1813 (Primary HTS)]; type: functional
[11] = inhibitors of SNCA 5'UTR-driven reporter translation, confirmation, H4 neuroglioma cells, luminescence (AID 1988); type: functional, cell-based
[12] = target: T5, Heat shock factor protein 1 (Mus musculus, UniProt P38532); assay: HSF1 potentiators in luciferase reporter cells, confirmation, cell-based, NIH3T3, luminescence, dose retest (AID 435004); type: functional;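 further: stress induced by proteasome inhibitor MG132 added 30 min after compound; luciferase reporter driven by HSF1 response element in NIH3T3 cells; actives raise luminescence as potentiators of the MG132 stress response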
T5 sequence (P38532 whole entry): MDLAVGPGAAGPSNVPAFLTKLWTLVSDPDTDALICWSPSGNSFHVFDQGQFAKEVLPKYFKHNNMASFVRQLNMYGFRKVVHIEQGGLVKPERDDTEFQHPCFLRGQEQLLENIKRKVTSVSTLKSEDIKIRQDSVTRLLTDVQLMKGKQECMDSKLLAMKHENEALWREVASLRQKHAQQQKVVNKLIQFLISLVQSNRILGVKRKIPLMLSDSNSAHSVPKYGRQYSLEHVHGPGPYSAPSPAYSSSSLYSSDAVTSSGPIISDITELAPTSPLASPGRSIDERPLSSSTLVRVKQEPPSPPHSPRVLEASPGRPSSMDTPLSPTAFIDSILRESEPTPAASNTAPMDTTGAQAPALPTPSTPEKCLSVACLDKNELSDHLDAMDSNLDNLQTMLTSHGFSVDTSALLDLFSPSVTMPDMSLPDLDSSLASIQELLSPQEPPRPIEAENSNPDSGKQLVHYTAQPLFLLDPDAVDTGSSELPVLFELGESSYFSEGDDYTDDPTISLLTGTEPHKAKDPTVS

[13] = tested on: INS1; assay: beta cell apoptosis inhibitors, cytokine rescue, dose response, luminescence, retest (AID 449756); type: functional, cell-based; settings: Rattus norvegicus;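 further: cell death triggered by IL-1 beta plus TNF-alpha plus IFN-gamma mixture; protective hits raise ATP signal compared with cytokine alone wells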
[14] = Luminescence Cell-Based Dose Confirmation HTS to Identify Activators of 5'UTR Stem-Loop Driven Alpha-Synuclein mRNA Translation in H4 Neuroglioblastoma Cells. [Related pubchem assays: 1829 (Project Summary), 1814 (Primary HTS)]; type: functional
[15] = Luminescence Cell-Based Dose Response HTS to Identify Activators of Luciferase Translation or Activity in H4 […] Cells. [Related pubchem assays: 1829 (Project Summary), 1814 (Primary HTS)]; type: functional
[16] = tested on: H4; assay: Luminescence Cell-Based Dose Response HTS to Identify Activators of 5'UTR Stem-Loop Driven Prion Protein mRNA Translation in H4 Neuroglioblastoma Cells. [Related pubchem assays: 1829 (Project Summary), 1814 (Primary HTS)]; type: functional; settings: Homo sapiens
[17] = inhibitors of intracellular T. cruzi replication, confirmation, NIH3T3 host cells, beta-gal luminescence (AID 2044); type: functional, cell-based;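 further: intracellular parasites grown in NIH/3T3 mouse fibroblasts as host cells; luminescent beta-galactosidase reporter signal from transgenic T. cruzi replicating inside host cells; inhibitors lower the luminescence signal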
[18] = cytotoxicity toward NIH3T3 fibroblasts, dose response, counter-screen, cell-based, ATP luminescence, mouse fibroblasts (AID 2010); type: functional;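 further: cells exposed to compound for about 90 hours before reading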
[19] = microbe, parasite or virus in culture; type: functional; settings: Mycobacterium tuberculosis

SMILES	EC50 [1]	EC50 [2]	EC50 [3]	IC50 [7]	other results
FC(F)(F)c1ccc(C2[C@H]3CN(Cc4cccnc4)[C@H](c4ccccc4)C34CC2(c2cccnc2)C4)cc1 (some centres not stated)	2.85 µM (active)	6.65 µM (active)	12 µM (active)		AC50 [4]: 3.07 µM (active); AC50 [5]: 3.46 µM (active); EC50 [6]: 24.1 µM (active)
O=C(CSc1nnc(-c2ccc(S(=O)(=O)N3CCCC3)cc2)o1)NCc1ccco1				16.3 µM (active)	
CCCCN1CC(COCc2ccccc2)Oc2cccc(Oc3cc(C)c(C)c(C)c3)c2S1(=O)=O (configuration not stated)					AC50 [8]: 9.16 µM (active)
NCCCn1c(C(=O)c2cc(Cl)c(N)c(Cl)c2)c2ccc([N+](=O)[O-])cc2[n+]1[O-]	2.8 µM (active)	> 150 µM (not active)	5.08 µM (active)		EC50 [9]: 5.24 µM (active); EC50 [10]: > 120 µM (not active); EC50 [11]: 2.06 µM (active); EC50 [12]: 46.8 µM (active); AC50 [13]: 4.16 µM (active)
CN(C)S(=O)(=O)c1cccc(NC(=O)COC(=O)/C=C/c2ccco2)c1				21.1 µM (active)	
COc1ccc2c(c1)[N+](C)(C)C(C)(C)C=C2C				3.14 µM (active)	
Nc1ccc(-c2cn3cccnc3n2)cc1	> 150 µM (not active)	> 150 µM (not active)	> 150 µM (not active)		
O=C(N/N=C/c1ccc(Cl)cc1)c1ccc2c(c1)OCO2				6.93 µM (active)	EC50 [14]: > 120 µM (not active); EC50 [15]: 1.87 µM (active); EC50 [16]: 2.44 µM (active)
CC(C)(C)c1ccc(S(=O)(=O)N2CCC(c3nc4cc(Cl)ccc4[nH]3)CC2)cc1	5.2 µM (active)	4.13 µM (active)	45.8 µM (active)		EC50 [17]: 2.97 µM (active); EC50 [18]: > 60 µM (not active)
Cc1csc(=O)n1CC(=O)OCC(=O)c1c(N)n(C)c(=O)n(C)c1=O					AC50 [8]: 27.1 µM (active)
Fc1cccc2sc(Nc3nc4cc5c(cc4s3)OCO5)nc12	> 150 µM (not active)	> 150 µM (not active)	> 150 µM (not active)		CC50 [19]: > 40 µM (active)
C/C(N)=C(/C#N)C(=O)CSc1nc2scc(-c3ccccc3)c2c(=O)n1C	1.8 µM (active)	> 150 µM (not active)	11.9 µM (active)		
O=C(Cn1nnc(-c2ccc(NC(=O)c3ccccc3F)cc2)n1)NCc1ccc(F)cc1				4.75 µM (active)	
Cc1c(Cl)c(C(F)F)nn1CC(=O)NC1C(=O)N2C(C(=O)O)=C(CSc3nnnn3C)CSC12 (configuration not stated)	< 0.06 µM (active)		0.106 µM (active)	6.48 µM (active)	
